Ratio and IC50 data for four compounds are collected here from ChEMBL document CHEMBL1127240, “Structure-activity relationships of taxol: synthesis and biological evaluation of C2 taxol analogs” (Bioorg Med Chem Lett, 1994).

Structures are written as SMILES.

The IC50 is the concentration at which inhibition is half-maximal. High values mean weaker potency in that assay, low ones greater potency in that assay.

For experiment [1], the target named is Tubulin alpha chain (Sus scrofa) (UniProt P02550). As to the kind of experiment: Compound was tested for effective concentration for tubulin polymerization expressed as ratio of compound relative to taxol (EC0.01 at 5 uM). The class given is functional.
Chain of Tubulin alpha chain (Sus scrofa) (P02550 whole entry, looked up): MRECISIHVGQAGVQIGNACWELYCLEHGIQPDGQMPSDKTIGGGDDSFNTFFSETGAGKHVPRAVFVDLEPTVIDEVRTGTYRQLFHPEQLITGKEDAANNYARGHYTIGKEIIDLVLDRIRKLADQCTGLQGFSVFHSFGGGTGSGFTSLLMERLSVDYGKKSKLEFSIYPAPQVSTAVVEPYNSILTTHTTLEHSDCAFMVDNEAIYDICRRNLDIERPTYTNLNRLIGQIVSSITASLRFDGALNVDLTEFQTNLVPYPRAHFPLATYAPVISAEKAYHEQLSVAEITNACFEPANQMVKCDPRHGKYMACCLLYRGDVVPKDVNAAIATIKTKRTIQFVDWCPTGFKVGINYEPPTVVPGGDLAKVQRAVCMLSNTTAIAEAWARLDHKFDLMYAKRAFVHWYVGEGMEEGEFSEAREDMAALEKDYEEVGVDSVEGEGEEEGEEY
In another experiment the test system is HCT-116. As to the kind of experiment: Compound was tested for inhibition of proliferation of human colon cancer cell line (HCT116). The class given is functional, cell-based.

In the case of `COc1ccc(C(=O)O[C@H]2C3[C@](C)(C(=O)[C@H](OC(C)=O)C4=C(C)[C@@H](OC(=O)[C@H](O)[C@@H](NC(=O)c5ccccc5)c5ccccc5)C[C@]2(O)C4(C)C)[C@@H](O)C[C@H]2OC[C@@]32OC(C)=O)cc1` (some centres not stated), in experiment [1], the Ratio was more than 250. This compound gave a concentration for half-maximal inhibition (IC50) in the experiment with HCT-116 of more than 88 nM.

Take `CC(=O)O[C@H]1C(=O)[C@@]2(C)C([C@H](OC(=O)C3CCCCC3)[C@]3(O)C[C@H](OC(=O)[C@H](O)[C@@H](NC(=O)c4ccccc4)c4ccccc4)C(C)=C1C3(C)C)[C@]1(OC(C)=O)CO[C@@H]1C[C@@H]2O` (some centres not stated): in experiment [1], the Ratio worked out at 130. The same compound registered a concentration for half-maximal inhibition (IC50) in the experiment on HCT-116 of more than 91 nM. The corresponding values for `CC(=O)O[C@H]1C(=O)[C@@]2(C)C([C@H](OC(=O)c3ccc([N+](=O)[O-])cc3)[C@]3(O)C[C@H](OC(=O)[C@H](O)[C@@H](NC(=O)c4ccccc4)c4ccccc4)C(C)=C1C3(C)C)[C@]1(OC(C)=O)CO[C@@H]1C[C@@H]2O` (some centres not stated) are more than 250 and more than 85 nM.

Compound `CC(=O)O[C@H]1C(=O)[C@@]2(C)[C@H]([C@H](OC(=O)c3ccccc3)[C@]3(O)C[C@H](OC(=O)[C@H](O)[C@@H](NC(=O)c4ccccc4)c4ccccc4)C(C)=C1C3(C)C)[C@]1(OC(C)=O)CO[C@@H]1C[C@@H]2O` [PACLITAXEL] showed a concentration for half-maximal inhibition (IC50) in the experiment with HCT-116 of 2 nM.
